For one assay, the target named is T1, gereinigtes ADAM 10 (Bos taurus, UniProt Q10741).
T1 construct: daß die proteolytisch aktivierte Form der Disintegrin-Metalloprotease ADAM 10 im wesentlichen in der Plasmamembranen lokalisiert ist; from tissue; host or cells: bovine kidney plasma membranes
T1 sequence (Q10741 214-748): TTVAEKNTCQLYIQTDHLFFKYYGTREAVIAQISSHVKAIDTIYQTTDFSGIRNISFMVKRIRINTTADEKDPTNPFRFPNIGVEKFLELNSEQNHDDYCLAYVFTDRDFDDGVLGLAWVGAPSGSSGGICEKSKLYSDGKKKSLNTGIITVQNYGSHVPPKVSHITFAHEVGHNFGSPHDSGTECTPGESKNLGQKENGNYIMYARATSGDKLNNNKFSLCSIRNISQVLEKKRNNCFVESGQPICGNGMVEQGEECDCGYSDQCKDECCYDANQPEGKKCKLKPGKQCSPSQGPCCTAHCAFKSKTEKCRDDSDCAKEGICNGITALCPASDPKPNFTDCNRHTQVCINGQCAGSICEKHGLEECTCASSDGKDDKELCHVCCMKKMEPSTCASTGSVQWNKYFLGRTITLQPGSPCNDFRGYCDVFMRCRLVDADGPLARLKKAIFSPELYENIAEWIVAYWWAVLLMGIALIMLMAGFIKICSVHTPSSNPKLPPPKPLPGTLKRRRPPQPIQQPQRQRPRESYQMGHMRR
Nature of the assay: Inhibition of the proteolytic cleavage of Aβ(11-28) by purified ADAM 10 (metalloproteinase inhibitors). Type of assay: biochemical, Rind (Bos taurus). The conditions noted are these: inhibitor concentration 1 mM.

For another assay, the system named is HEK-ADAM 10-Zellen. As to the kind of experiment: Immunoblot analysis of APPsα secretion into the medium (antibody 6E10), HEK cells stably expressing ADAM 10. It counts as cell-based. Conditions: Homo sapiens, HEK293; HEK-ADAM 10 cells, 1 µm PMA, 4 h, Fig. 5 lanes 4 and 5; read-out: Vergrößerung der α-Sekretaseaktivität (APPsα-Freisetzung). An excerpt:
(§1) Fig. 5 zeigt die Sekretion von APPsα von HEK- und HEK-ADAM-10-Zellen. • (A) Die Zellen wurden in Gegenwart der bezeichneten Verbindung inkubiert. Nach 4 Stunden wurde das Medium gesammelt, die Proteine präzipitiert und einer Immunoblotanalyse mit dem monoklonalen Antikörper 6E10, gefolgt von einem sekundären [^35S]-markierten Anti-Maus-IgG-Antikörper, unterzogen. • (B) Quantitative Analyse des sekretierten APPsα. Die APPsα entsprechenden radioaktiven Banden wurden mit Hilfe eines Bio-Imaging Analyzer BAS-1800 quantifiziert. Die Meßwerte wurden wie in dem Beispiel beschrieben, auf verschiedene Proteinmengen normiert. […]
(§2) 8.10^5 HEK und HEK-ADAM10-Zellen (HEK-Zellen, die ADAM 10 stabil exprimieren, Verfahren wie oben) wurden auf 5 cm Zellkulturschalen, die mit Poly-L-Lysin behandelt worden waren, ausgesät und fast bis zu Konfluenz hochgezogen. […] Die radioaktiven Banden, die APPsα entsprachen, wurden mit Hilfe des Bio-Imaging-Analysers-BAS-1800 (Fuji) quantifiziert. […]
(§3) Die α-Sekretaseaktivität in HEK-ADAM 10 Zellen wurde mit der Aktivität, die in untransfizierten HEK-Zellen gefunden wurde, verglichen. […] Immunoblotexperimente und Immunopräzipitation nach metabolischer [^35S]-Markierung wurden durchgeführt, um die α-Sekretaseaktivität zu quantifizieren (Fig. 5 und Fig. 6). […]
(In general: In western blotting, separated proteins are transferred to a membrane and probed.)

The test system of another assay is HEK-Zellen. Nature of the assay: Immunoblot analysis of APPsα secretion into the medium (antibody 6E10), untransfected HEK cells. Type of assay: cell-based. The conditions noted are these: Homo sapiens, HEK293, 1 µm PMA, 4 h, Fig. 5 lanes 1 and 2, read-out: Erhöhung der APPsα-Freisetzung.
Text: as §1, §2, §3

Description for gereinigtes ADAM 10: Peptide einer Endkonzentration von 0,3 mM wurden mit 2 µg gereinigten Enzym in 50 µl 50 mM EPPS pH 8,3, 250 mM NaCl bei 37°C 30 Minuten oder 6 Stunden inkubiert. Die Reaktionen wurden mit 2 µl TFA gestoppt. Meßproben wurden mit Hilfe von HPLC auf einer Vydac (The Separation Group, Hesperia, Calif. USA) RP 18 Säule (5 µm, 250 x 4,6 mm) analysiert. Die Peptide wurden mit einem Puffersystem von 0,1 % TFA in Wasser (Puffer A) und 0,1 % TFA, 9,9 % Wasser, 90 % Acetonitril (Puffer B) aufgetrennt, wobei der folgende Gradient angelegt wurde: 0 % B, 5 Min.; 0 bis 70 % B innerhalb 45 Min. Das Molekulargewicht der Proteolyseprodukte wurde mit ESI-Massenspektrometrie bestimmt. Für die Berechnung der prozentualen Spaltung wurde die Peakfläche, die ein Peptid ergab, das ohne Enzym inkubiert und ansonsten identisch behandelt wurde, als Referenz für 100 % herangezogen.
Einige Metalloproteinase-Inhibitoren wurden auf ihre Fähigkeit, die proteolytische Spaltung von Aβ(11-28) durch gereinigtes ADAM 10 zu inhibieren, getestet.

As for `c1cnc2c(c1)ccc1cccnc12` [1,10-Phenanthrolin], the “Inhibierung der proteolytischen Spaltung von Aβ(11-28) durch gereinigtes ADAM 10” value on gereinigtes ADAM 10 was “inhibierte”.
As for `OC(CS)C(O)CS` (stereo not shown) [DTT], the “Inhibierung der proteolytischen Spaltung von Aβ(11-28) durch gereinigtes ADAM 10” value on gereinigtes ADAM 10 is reported as “vollständig inhibiert”.
Turning to `CCCCCCCCCCCCCC(=O)O[C@@H]1[C@@H](C)[C@@]2(O)[C@@H](C=C(CO)C[C@]3(O)C(=O)C(C)=C[C@@H]23)[C@@H]2C(C)(C)[C@]12OC(C)=O` [PMA, Phorbol-12-myristat-13-acetat], the fold induction at 1 µM is 2.5 in the assay on HEK-ADAM 10-Zellen and approximately 6 in the assay on HEK-Zellen.
